Measured values as given in patent US9765075B2, “Substituted bridged urea analogs as sirtuin modulators” (GLAXOSMITHKLINE LLC, priority 2013, dated 2017).
Changes are numbered by the printed parent chain. pEC50: −log10 of the molar value.

Experiments:
Assay in all cases: SIRT1 activation dose-response, OAcADPr assay with Ac-p53(W5) substrate
Assay type in all cases: biochemical
full-length hSIRT1 T219A = target: T1, full-length hSIRT1 T219A (Homo sapiens, UniProt Q96EB6, T219A); conditions: for pEC50: hSIRT1 T219A, activation dose-response, Ac-p53(W5) substrate
T1 construct: The following point mutants of full-length hSIRT1 were generated; His6 (C); made in house
T1 sequence (Q96EB6 1-747 T219A): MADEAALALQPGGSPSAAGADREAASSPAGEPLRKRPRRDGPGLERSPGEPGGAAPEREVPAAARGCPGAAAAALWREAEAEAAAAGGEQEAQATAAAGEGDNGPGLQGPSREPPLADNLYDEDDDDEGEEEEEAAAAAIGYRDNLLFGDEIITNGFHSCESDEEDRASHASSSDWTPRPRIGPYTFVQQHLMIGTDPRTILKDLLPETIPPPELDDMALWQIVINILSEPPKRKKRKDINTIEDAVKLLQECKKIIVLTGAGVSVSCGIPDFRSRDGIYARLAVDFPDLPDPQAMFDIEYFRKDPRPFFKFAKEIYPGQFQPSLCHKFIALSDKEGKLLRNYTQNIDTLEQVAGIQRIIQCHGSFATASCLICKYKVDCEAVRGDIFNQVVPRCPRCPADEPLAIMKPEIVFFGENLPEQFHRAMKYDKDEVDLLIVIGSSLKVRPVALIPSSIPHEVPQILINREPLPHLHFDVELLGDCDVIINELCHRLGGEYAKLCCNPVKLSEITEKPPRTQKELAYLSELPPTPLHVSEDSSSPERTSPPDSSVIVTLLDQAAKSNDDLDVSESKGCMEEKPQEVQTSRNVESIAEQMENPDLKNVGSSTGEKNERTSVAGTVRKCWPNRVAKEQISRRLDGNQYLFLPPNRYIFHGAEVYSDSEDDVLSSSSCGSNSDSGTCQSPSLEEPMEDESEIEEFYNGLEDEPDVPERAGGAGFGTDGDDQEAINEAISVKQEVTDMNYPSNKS

full-length hSIRT1 Q222A = target: T2, full-length hSIRT1 Q222A (Homo sapiens, UniProt Q96EB6, Q222A); conditions: for pEC50: hSIRT1 Q222A, activation dose-response, Ac-p53(W5) substrate
T2 construct: The following point mutants of full-length hSIRT1 were generated; made in house
T2 sequence (Q96EB6 1-747 Q222A): T1 sequence (Q96EB6 1-747 T219A) with A219T, Q222A

full-length hSIRT1 N226A = target: T3, full-length hSIRT1 N226A (Homo sapiens, UniProt Q96EB6, N226A); conditions: for pEC50: hSIRT1 N226A, activation dose-response, Ac-p53(W5) substrate
T3 construct: The following point mutants of full-length hSIRT1 were generated; His6 (C); made in house
T3 sequence (Q96EB6 1-747 N226A): T1 sequence (Q96EB6 1-747 T219A) with A219T, N226A

| EC50 fold shift (mutant EC50/wild-type EC50) (full-length hSIRT1 T219A) | RVmax fold shift = (wild-type RVmax−1)/(mutant RVmax−1) (full-length hSIRT1 T219A) | pEC50 (full-length hSIRT1 T219A) | EC50 fold shift (mutant EC50/wild-type EC50) (full-length hSIRT1 Q222A) | RVmax fold shift = (wild-type RVmax−1)/(mutant RVmax−1) (full-length hSIRT1 Q222A) | pEC50 (full-length hSIRT1 Q222A) | EC50 fold shift (mutant EC50/wild-type EC50) (full-length hSIRT1 N226A) | RVmax fold shift = (wild-type RVmax−1)/(mutant RVmax−1) (full-length hSIRT1 N226A) | pEC50 (full-length hSIRT1 N226A) | Compound |
| --- | --- | --- | --- | --- | --- | --- | --- | --- | --- |
| 4.01 | 2.73 | 5.05 | 0.91 | 0.98 | 5.70 | 1.78 | 1.32 | 5.41 | O=C(Nc1ccccn1)N1c2nc(-c3cccc(C(F)(F)F)c3)ccc2N2CC[C@H]1C2 [Example 7] |
| 8.26 | 1.64 | 5.40 | 1.07 | 1.22 | 6.29 | 2.15 | 1.34 | 5.99 | Cc1cnc2c(NC(=O)N3c4nc(-c5cccc(C(F)(F)F)c5)ccc4N4CC[C@H]3C4)cccc2n1 [Example 8] |
